Experimental data reported in patent US8952024B2, “Herbicidal pyrimidone derivatives” (E I du Pont de Nemours and Company, priority 2009, dated 2015).

Experiments:
Assay in all cases: Test B pre-/postemergence plant response
Assay type in all cases: in vivo
[1] = test system: nightshade (eastern black nightshade, Solanum ptycanthum); settings: Preemergence; for Nightshade plant response rating: 125 g ai/ha
Method in brief: (§1)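 Test compounds, formulated in a non-phytotoxic solvent mixture with surfactant, are applied to the soil surface (loam and sand blend) right after seeding, or sprayed over plants at the 1- to 4-leaf stage grown in peat moss/vermiculite medium. After 13 to 15 days under glasshouse conditions, each species is scored visually from 0 (no effect) to 100 (complete control) against controls.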

[2] = test system: galium (catchweed bedstraw, Galium aparine); settings: Preemergence; for Galium plant response rating: 125 g ai/ha
Method in brief: as §1

[3] = test system: sunflower (common oilseed sunflower, Helianthus annuus); settings: Preemergence; for Sunflower plant response rating: 125 g ai/ha
Method in brief: as §1

wild oat (Avena fatua) = test system: wild oat (Avena fatua)
Method in brief: as §1

[4] = test system: goosegrass (Eleusine indica); settings: Preemergence, 62 g ai/ha; scale 0 to 100 (0 no effect, 100 complete control)
[5] = 31 g ai/ha, scale 0 to 100 (0 no effect, 100 complete control)
[6] = 62 g ai/ha, scale 0 to 100 (0 no effect, 100 complete control)
[7] = 250 g ai/ha, Preemergence, 0 to 100 scale
[8] = Postemergence, 31 g ai/ha, scale 0 to 100 (0 no effect, 100 complete control)
[9] = Postemergence, 62 g ai/ha, scale 0 (no effect) to 100 (complete control), 13 to 15 days
[10] = Postemergence, 125 g ai/ha, visual rating after 13 to 15 days, scale 0 (no effect) to 100 (complete control)
[11] = Postemergence, 250 g ai/ha, scale 0 to 100
[12] = Preemergence, 31 g ai/ha, scale 0 to 100 (0 no effect, 100 complete control)
[13] = Preemergence, 62 g ai/ha, scale 0 to 100 (0 no effect, 100 complete control)
[14] = Preemergence, 125 g ai/ha, 0 to 100 scale

| Compound | Plant response rating, Nightshade ([1]; 250 g ai/ha, 0 to 100 scale) | Plant response rating, Nightshade [1, 5] | Plant response rating, Nightshade [1, 6] | Nightshade plant response rating ([1]; 0 to 100 scale) | Plant response rating, Galium ([2]; 250 g ai/ha, 0 to 100 scale) | Plant response rating, Galium [2, 5] | Plant response rating, Galium [2, 6] | Galium plant response rating ([2]; 0 to 100 scale) | Plant response rating, Sunflower ([3]; 250 g ai/ha, 0 to 100 scale) | Plant response rating, Sunflower [3, 5] | Plant response rating, Sunflower [3, 6] | Sunflower plant response rating ([3]; 0 to 100 scale) | Plant response rating, Oat, Wild (wild oat (Avena fatua); [7]) | Plant response rating, Oat, Wild (wild oat (Avena fatua); [8]) | Plant response rating, Oat, Wild (wild oat (Avena fatua); [9]) | Plant response rating, Oat, Wild (wild oat (Avena fatua); [10]) | Plant response rating, Oat, Wild (wild oat (Avena fatua); [12]) | Plant response rating, Oat, Wild (wild oat (Avena fatua); [13]) | Oat, Wild plant response rating (wild oat (Avena fatua); [14]) | Plant response rating, Goosegrass [4] | also measured |
| --- | --- | --- | --- | --- | --- | --- | --- | --- | --- | --- | --- | --- | --- | --- | --- | --- | --- | --- | --- | --- | --- |
| 3-cyclohexyl-5-[(2-hydroxy-6-oxo-1-cyclohexen-1-yl)carbonyl]-2-phenyl-4(3H)-pyrimidinone [Compound 128] | 100 | 85 | 100 | 100 | 75 | 5 | 50 | 50 | 98 | 75 | 85 | 95 | 40 | 50 | 50 | 70 | 0 | 0 | 10 | 95 | Oat, Wild plant response rating (wild oat (Avena fatua); [11]): 70 |
| Cc1ccccc1-n1c(-c2ccccc2)ncc(C(=O)C2=C(O)CCCC2=O)c1=O [Compound 12] | 100 | 100 | 100 | 100 | 95 | 0 | 50 | 90 | 100 | 95 | 98 | 98 | 5 | 0 | 5 | 20 | 0 | 0 | 0 | 95 | Oat, Wild plant response rating (wild oat (Avena fatua); [11]): 20 |
| O=C1CCCC(O)=C1C(=O)c1cnc(-c2ccccc2)n(-c2ccccc2F)c1=O [Compound 26] | 100 | 85 | 100 | 100 | 98 | 0 | 50 | 90 | 95 | 60 | 90 | 90 | 5 | 40 | 40 | 45 | 0 | 0 | 0 | 80 | Oat, Wild plant response rating (wild oat (Avena fatua); [11]): 60 |
| Cc1cc(C)cc(-n2c(-c3ccccc3)ncc(C(=O)C3=C(O)CCCC3=O)c2=O)c1 [Compound 33] | 100 | 80 | 100 | 100 | 90 | 0 | 10 | 50 | 90 | 65 | 75 | 75 | 50 |  | 15 | 40 | 0 | 0 | 30 | 85 |  |
